# According to patent US11955208B2, “Computational systems and methods for improving the accuracy of drug toxicity predictions” (Cornell University, priority 2016, dated 2024):
# How the values were obtained:
# [1] = tested on: breast cancer patients; conditions: recent clinical trials; cited from earlier work
# [2] = target: T1, DRD2L (Homo sapiens, UniProt P14416)
# [3] = tested on: nuclear hormone receptors, the kinome, or other drug targets of FDA-approved cancer therapies
# [4] = tested on: D2-like (DRD2/3/4) subfamily of dopamine receptors; conditions: arrestin recruitment
# Protocol: (§1) To test the target prediction, in vitro profiling of GPCR activity using a hetereologous reporter assay for arrestin recruitment, a hallmark of GPCR activation was performed.
# [5] = tested on: short and long isoforms of DRD2; conditions: arrestin recruitment
# Protocol: as §1
# [6] = tested on: other GPCRs; assay: GPCR profiling, heterologous reporter assay for arrestin recruitment; type: cell-based; conditions: under the evaluated conditions
# Protocol: as §1
# [7] = tested on: D1-like (DRD1/5) subfamily of dopamine receptors; assay: as above; type: cell-based
# Protocol: as §1
# [8] = target: T1, DRD2L; assay: antagonism of arrestin recruitment to DRD2L, Gaddam/Schild EC50 shift analysis; type: cell-based; set-up: expressed in transfected cells; conditions: dopamine completely reversed dose-dependent antagonism of up to 100 uM ONC201
# Protocol: as §1
# [9] = in vivo; cited from earlier work
# T1 sequence (P14416 whole entry): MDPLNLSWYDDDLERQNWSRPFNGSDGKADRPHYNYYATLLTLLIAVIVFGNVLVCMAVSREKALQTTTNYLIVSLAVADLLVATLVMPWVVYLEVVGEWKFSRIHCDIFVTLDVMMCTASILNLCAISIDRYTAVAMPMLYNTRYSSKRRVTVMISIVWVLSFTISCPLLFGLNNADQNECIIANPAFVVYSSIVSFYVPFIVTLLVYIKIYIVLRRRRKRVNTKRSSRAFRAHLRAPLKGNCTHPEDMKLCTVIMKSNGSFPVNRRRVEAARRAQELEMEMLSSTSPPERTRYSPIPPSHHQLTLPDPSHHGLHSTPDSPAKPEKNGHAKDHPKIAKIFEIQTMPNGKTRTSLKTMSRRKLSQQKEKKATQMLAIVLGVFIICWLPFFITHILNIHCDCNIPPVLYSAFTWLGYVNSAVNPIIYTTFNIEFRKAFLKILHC
compound,measurement,setting,value
C=C1C[C@@H]2CC[C@@]34C[C@H]5O[C@H]6[C@@H](O3)[C@H]3O[C@H](CC[C@@H]3O[C@H]6[C@H]5O4)CC(=O)C[C@@H]3[C@@H](OC)[C@@H](C[C@H](O)CN)O[C@H]3C[C@H]3O[C@@H](CC[C@@H]1O2)C[C@@H](C)C3=C [Eribulin],breast cancer patients showing any detectable response after treatment,[1],< 50%
Cc1ccccc1CN1C(=O)C2=C(CCN(Cc3ccccc3)C2)N2CCN=C12 [ONC201],cAMP modulation in response to compound,[2],Confirmatory results
same,"interactions with nuclear hormone receptors, kinome, other cancer drug targets",[3],no significant interactions
same,antagonism of D2-like dopamine receptors,[4],selectively antagonizes
same,antagonism of DRD2 short and long isoforms,[5],antagonized
same,antagonism of other GPCRs,[6],no observed antagonism
same,antagonism of D1-like dopamine receptors,[7],not D1-like
same,mode of antagonism of DRD2L,[8],"direct, competitive antagonism"
CC(C)C[C@H](NC(=O)[C@H](Cc1ccccc1)NC(=O)c1cnccn1)B(O)O [bortezomib],associated adverse event,[9],peripheral neuropathy
CC(=O)O[C@@]12CO[C@@H]1C[C@H](O)[C@@]1(C)C(=O)[C@H](O)C3=C(C)[C@@H](OC(=O)[C@H](O)[C@@H](NC(=O)OC(C)(C)C)c4ccccc4)C[C@@](O)([C@@H](OC(=O)c4ccccc4)[C@H]21)C3(C)C [docetaxel],associated adverse event,[9],neutropenia
CN(CCOc1ccc(CC2SC(=O)NC2=O)cc1)c1ccccn1 (centres unmarked) [rosiglitazone],associated adverse event,[9],elevated risk of heart attack
